Reference: PMC9697446 (International Journal of Molecular Sciences, 2022)

What was measured:
[1] = Oxygen radical absorbance capacity assay (ORAC-FL); details: Trolox equivalent, Trolox = 1; means ± SEM (n = 3)
Description: The method is based on the measurement of the fluorescence intensity characterizing the degree of destruction of the fluorescence probe under the action of peroxyl radicals.
The peroxyl radical scavenging capacity of the test compounds was characterized in terms of the Trolox equivalent (TE), which is equal to the ratio of the Trolox concentration to the concentration of a test compound when they show equal fluorescence intensities in the assay. The peroxyl radical scavenging capacity of Trolox was set as 1 [67, 68].
2,2´-Azobis(amidinopropane) dihydrochloride (AAPH), (±)-6-hydroxy-2,5,7,8-tetramethylchroman-2-carboxylic acid (Trolox), and fluorescein (FL) were purchased from Sigma-Aldrich. The reaction was carried out at 37 °C in 75 mM K,Na phosphate buffer (pH 7.4), and the final reaction mixture was 200 µL. The test compounds and the Trolox standard were dissolved in DMSO to 10 mM and further diluted in a 75 mM K,Na phosphate buffer (pH 7.4). The final concentrations were 0.1–1 µM for the test compounds and 1–6 µM for the Trolox. The blank was composed of 20 µL of a 75 mM K,Na phosphate buffer (pH 7.4) containing 20% (v/v) DMSO, 120 µL of FL and 60 µL of AAPH, and it was added in each assay. The antioxidant (20 µL) and FL (120 µL, final concentration: 70 nM) solutions were placed in a black 96-well microplate and were preincubated for 15 min at 37 °C. A solution of AAPH (60 µL, final concentration: 12 mM) was then added rapidly using a multichannel pipette. The microplate was immediately placed in the reader, and the fluorescence was recorded every minute for 100 min. The microplate was automatically shaken prior to each reading. The Trolox standard curve was also obtained in each assay. All reactions were carried out in triplicate, and at least three different assays were performed for each sample.
The antioxidant curves (fluorescence vs. time) were first normalized to the curve of the blank (without the antioxidant) corresponding to the same assay, and the area under the fluorescence decay curve (AUC) was calculated. The net AUC corresponding to a sample was calculated by subtracting the AUC corresponding to the blank. Regression equations were calculated by plotting the net AUC against the antioxidant concentration. The ORAC Tolox equivalent value (TE) was obtained by dividing the slope of the latter curve by the slope of the Trolox curve obtained in the same assay. The ability of Trolox to scavenge the peroxyl radical was equal to 1 [64, 65]. […] The data are expressed as means ± SEM.

tubulin = biological target: T1, tubulin (Sus scrofa, UniProt P02550+P02554); test: Tubulin polymerization (microtubule assembly); format: biochemical; details: for Increase in the rate of tubulin polymerization: 100 µM; for Tubulin polymerization rate, % of control at 100 µM: read-out: Tubulin polymerization rate (dA355/dt), % Control
T1 construct: purchased Cytoskeleton, Inc. HTS-Tubulin polymerization assay kit
T1 sequence (P02550 whole entry): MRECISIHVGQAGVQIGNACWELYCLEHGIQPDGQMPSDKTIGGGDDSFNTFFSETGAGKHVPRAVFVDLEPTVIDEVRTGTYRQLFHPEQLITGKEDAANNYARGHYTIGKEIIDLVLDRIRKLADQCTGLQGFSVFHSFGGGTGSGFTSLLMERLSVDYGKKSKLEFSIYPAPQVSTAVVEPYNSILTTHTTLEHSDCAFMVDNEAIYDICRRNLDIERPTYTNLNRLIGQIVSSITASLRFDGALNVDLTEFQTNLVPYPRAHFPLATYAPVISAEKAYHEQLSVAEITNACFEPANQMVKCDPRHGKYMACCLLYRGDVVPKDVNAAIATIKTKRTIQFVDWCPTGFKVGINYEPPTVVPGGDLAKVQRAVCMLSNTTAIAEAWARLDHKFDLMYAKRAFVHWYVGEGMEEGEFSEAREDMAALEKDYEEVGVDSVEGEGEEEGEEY
T1 sequence (P02554 whole entry): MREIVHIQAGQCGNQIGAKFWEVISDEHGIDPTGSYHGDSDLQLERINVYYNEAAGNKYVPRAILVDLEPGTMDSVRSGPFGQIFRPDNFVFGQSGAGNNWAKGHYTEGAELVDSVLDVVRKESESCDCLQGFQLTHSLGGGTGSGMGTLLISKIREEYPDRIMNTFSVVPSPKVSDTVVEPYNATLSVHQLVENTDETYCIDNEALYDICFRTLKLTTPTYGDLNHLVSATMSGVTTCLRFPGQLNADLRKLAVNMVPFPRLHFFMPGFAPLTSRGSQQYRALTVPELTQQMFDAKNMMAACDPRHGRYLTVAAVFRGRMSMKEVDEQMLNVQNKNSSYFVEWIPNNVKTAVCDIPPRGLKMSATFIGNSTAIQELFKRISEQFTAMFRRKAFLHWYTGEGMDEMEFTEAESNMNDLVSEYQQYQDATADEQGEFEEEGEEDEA
Description: The assembly of tubulin into microtubules was carried out using pure tubulin from an HTS-Tubulin polymerization assay kit (Cytoskeleton, Inc., Denver, CO, USA). A standard polymerization reaction used 100 μL of 4 mg/mL tubulin in 80 mM PIPES (pH 6.9), 0.5 mM EGTA, 2 mM MgCl2, and 1 mM GTP. Polymerization was monitored by recording the change in absorbance on a Wallac Victor 3 1420 Multilabel Counter (Perkin Elmer, Turku, Finland) at λ = 3 55 nm. Electron microscopic monitoring was carried out with a Carl Zeiss Libra 120 electron microscope (Carl Zeiss Meditec AG, Jena, Germany) at 120 kV using negative contrasting.

[2] = system: isolated rat liver mitochondria; test: Bypass of rotenone (complex I) inhibition, mitochondrial repolarization; format: biochemical; details: mitochondria energized by glutamate/malate, rotenone added
Description: The ability to bypass complex I inhibition was determined for MB, its reduced form MBH2, and compound 4i (Figure 4).
The addition of rotenone to mitochondria energized by complex I substrates (glutamate/malate) causes considerable depolarization.
Safranine O (10 µM) was used as a membrane potential probe. Fluorescence intensity at 580 nm (excitation at 520 nm) was measured with a Wallac Victor 3 1420 Multilabel Counter (Perkin Elmer, Turku, Finland). The mitochondrial protein concentration was 0.2 mg/mL. The medium for measurements contained 75 mM sucrose, 225 mM mannitol, 10 mM K-HEPES (pH 7.4), 0.02 mM EGTA, and 1 mM KH2PO4. After a 5-min incubation, 5 mM glutamate/malate or 5 mM succinate in the presence of 0.5 µM rotenone were added to produce the mitochondrial potential. Then, the compounds (30 µM) or the same volume of the vehicle (DMSO) were injected into the mitochondrial suspension. After 15–20 min, 12.5 µM CaCl2 was added to each sample to induce the depolarization of mitochondria, and after 5 min, 0.5 µM CCCP was added for maximum depolarization of the mitochondria. The level of depolarization (ΔΨm) was calculated using the fluorescence value after 10-min incubation with 30 µM of compounds (or vehicle) normalized between the fluorescence measurements after substrate and CCCP addition, where fluorescence intensity at 580 nm was 100% after substrate addition and was 0% after CCCP addition.

[3] = system: isolated rat liver mitochondria; test: Mitochondrial membrane potential and calcium-induced depolarization (safranine O); format: biochemical; details: complex I inhibitor rotenone and a substrate of RC complex II
AChE = AChE (Homo sapiens, UniProt P22303); test: Kinetic analysis of AChE inhibition, steady-state inhibition constants; format: biochemical; details: for AChE inhibition constant αKi (noncompetitive component) / Ki: Lineweaver–Burk analysis; for Ki: read-out: AChE inhibition constant Ki (competitive component); for Mechanism of AChE inhibition: Lineweaver–Burk double reciprocal plot
Chain of AChE (P22303 32-588 isoform P22303-2): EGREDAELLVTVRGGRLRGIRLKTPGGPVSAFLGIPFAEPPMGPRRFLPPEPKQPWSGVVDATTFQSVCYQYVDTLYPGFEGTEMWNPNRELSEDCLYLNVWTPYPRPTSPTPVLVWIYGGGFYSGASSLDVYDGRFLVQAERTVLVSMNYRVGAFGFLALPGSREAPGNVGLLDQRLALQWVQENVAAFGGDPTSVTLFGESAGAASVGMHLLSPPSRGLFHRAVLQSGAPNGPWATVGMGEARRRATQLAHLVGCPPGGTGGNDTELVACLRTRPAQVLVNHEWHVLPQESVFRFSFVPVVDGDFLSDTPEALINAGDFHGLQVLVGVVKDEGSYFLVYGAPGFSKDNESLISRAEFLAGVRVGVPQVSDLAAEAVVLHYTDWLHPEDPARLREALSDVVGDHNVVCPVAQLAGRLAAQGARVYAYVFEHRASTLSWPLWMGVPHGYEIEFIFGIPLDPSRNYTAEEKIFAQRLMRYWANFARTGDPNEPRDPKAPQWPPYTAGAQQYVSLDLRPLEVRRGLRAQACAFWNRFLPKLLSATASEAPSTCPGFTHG
Description: . The results were analyzed using the Lineweaver–Burk double reciprocal plot, and the graphical analysis of the kinetic data is shown in Figure 1. […]. To elucidate the inhibition mechanisms for the active compounds, the residual activity of AChE was determined in the presence of three increasing concentrations of the test compounds and six decreasing concentrations of the substrates. The test compounds were preincubated with the enzyme at 25 °C for 5 min, followed by the addition of the substrates. Parallel controls were made for an assay of the rate of hydrolysis of the same concentrations of substrates in the solutions with no inhibitor. The kinetic parameters of substrate hydrolysis were determined. Measurements were performed with a FLUOStar Optima microplate reader. Each experiment was performed in triplicate.

[4] = biological target: T2, NMDA receptor intrachannel site ([3H]MK-801) (Rattus norvegicus, UniProt P35439); test: Radioligand binding, [3H]MK-801 site of the NMDA receptor
T2 construct: from tissue; host or cells: rat brain membranes
Description: (§1) The experiments were carried out using a rat brain membrane fraction.
(§2) The effect of test compounds on the radioligand binding to NMDA receptors was determined as previously described. Two radioactive ligands were used: [^3H] […] A pellet of rat brain membrane specimen was resuspended in a working buffer (5 mM HEPES/4.5 mM Tris buffer, pH 7.6) in a ratio of 1:5 and stored in liquid nitrogen. The reaction mixture (with a final volume of 0.5 mL) contained 200 µL of the working buffer, 50 µL of 50 nM radioligand solution, and 250 µL of the membrane suspension. Nonspecific binding was determined in the presence of 50 µL of […] of unlabeled ligand.
(§3) For the binding study, the reaction mixture was incubated at room temperature for 2 h. After incubation, the samples were filtered through GF/B glass-fiber filters (Whatman), washed with the working buffer, dried, and transferred to scintillation vials, and then 5 mL of scintillation fluid was added to the vials containing 4 g of diphenyloxazole (PPO), 0.2 g of diphenyloxazoil benzene (POPOP), and 1 L of toluene.
(§4) The effect of the test compounds on the binding of [^3H]

[5] = biological target: T3, NMDA receptor peripheral site ([3H]ifenprodil) (Rattus norvegicus, UniProt P35439+Q00960); test: Radioligand binding, [3H]ifenprodil site of the NMDA receptor
T3 construct: from tissue; host or cells: rat brain membranes
T3 sequence (Q00960 27-1482, other chains not shown): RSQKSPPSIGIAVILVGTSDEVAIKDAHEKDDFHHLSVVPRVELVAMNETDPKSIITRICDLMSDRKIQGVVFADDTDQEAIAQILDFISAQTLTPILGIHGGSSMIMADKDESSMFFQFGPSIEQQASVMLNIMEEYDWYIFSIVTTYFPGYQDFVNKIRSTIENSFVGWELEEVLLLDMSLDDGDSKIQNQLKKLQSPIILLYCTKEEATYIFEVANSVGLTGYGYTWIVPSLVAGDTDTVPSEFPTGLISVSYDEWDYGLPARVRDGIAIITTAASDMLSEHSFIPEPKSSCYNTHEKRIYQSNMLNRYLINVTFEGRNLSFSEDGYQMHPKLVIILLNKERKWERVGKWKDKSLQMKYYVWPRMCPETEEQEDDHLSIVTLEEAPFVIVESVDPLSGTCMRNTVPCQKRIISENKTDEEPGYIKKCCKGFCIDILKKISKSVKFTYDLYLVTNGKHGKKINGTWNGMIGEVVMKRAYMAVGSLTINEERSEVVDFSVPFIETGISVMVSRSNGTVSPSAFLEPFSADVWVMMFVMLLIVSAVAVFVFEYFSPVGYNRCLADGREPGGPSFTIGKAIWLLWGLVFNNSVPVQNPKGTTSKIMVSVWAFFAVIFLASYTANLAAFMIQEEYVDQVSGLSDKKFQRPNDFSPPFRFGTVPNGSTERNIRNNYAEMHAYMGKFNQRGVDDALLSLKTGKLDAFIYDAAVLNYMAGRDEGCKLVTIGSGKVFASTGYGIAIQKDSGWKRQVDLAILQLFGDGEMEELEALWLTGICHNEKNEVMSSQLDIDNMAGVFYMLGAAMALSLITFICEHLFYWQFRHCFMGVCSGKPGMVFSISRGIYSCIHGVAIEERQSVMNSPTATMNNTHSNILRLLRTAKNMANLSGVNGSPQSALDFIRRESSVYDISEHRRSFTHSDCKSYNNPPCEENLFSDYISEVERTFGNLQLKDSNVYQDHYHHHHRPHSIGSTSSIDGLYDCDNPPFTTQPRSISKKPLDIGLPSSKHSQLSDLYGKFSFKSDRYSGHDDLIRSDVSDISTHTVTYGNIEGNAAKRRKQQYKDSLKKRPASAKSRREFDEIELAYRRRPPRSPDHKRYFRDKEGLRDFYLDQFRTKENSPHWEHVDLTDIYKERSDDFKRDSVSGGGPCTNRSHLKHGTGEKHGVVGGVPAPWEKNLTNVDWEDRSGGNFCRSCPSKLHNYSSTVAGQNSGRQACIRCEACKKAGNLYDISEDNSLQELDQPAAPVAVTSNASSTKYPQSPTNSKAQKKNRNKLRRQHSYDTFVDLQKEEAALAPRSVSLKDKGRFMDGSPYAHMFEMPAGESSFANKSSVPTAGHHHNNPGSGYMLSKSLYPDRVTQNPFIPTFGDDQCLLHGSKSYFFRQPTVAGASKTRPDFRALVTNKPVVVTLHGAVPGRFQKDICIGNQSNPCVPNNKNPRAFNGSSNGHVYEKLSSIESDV
Description: as §1, §2, §3, §4

[6] = system: isolated rat liver mitochondria; test: Oxygen consumption rate of mitochondria (Seahorse flux analyzer); format: biochemical; details: nanomolar concentrations; complex I substrates (glutamate and malate) and in the presence of rotenone
Description: Meanwhile, compound 4i can stimulate respiration of isolated rat liver mitochondria, which was estimated using an XFe96 Seahorse extracellular flux analyzer (Figure 5).
Analysis was based on the fluorometric determination of O2 and H^+ levels with solid-state probes on a sensor cartridge. The oxygen consumption rate (OCR) was measured successively in the presence of RC substrates and then after the addition of ADP (phosphorylating respiration), ATP synthase F^o-subunit inhibitor oligomycin (proton leak), oxidative phosphorylation uncoupler FCCP (maximal respiration), and the corresponding inhibitors of respiration chain complexes (non-mitochondrial respiration) (Figure 5a).
The oxygen consumption was measured using a Seahorse XF96 flux analyzer on mitochondria respiring on glutamate (5 mM) and malate (5 mM), according the same protocol as with a correction to a 96-well instead of a 24-well plate. Respiration by rat liver mitochondria (5 µg/well) was sequentially measured in a coupled state with substrates of complex I (basal respiration); followed by phosphorylating respiration after the addition of ADP; non-phosphorylating or resting respiration induced with the addition of oligomycin; uncoupled respiration stimulated by the addition of FCCP; and finally, non-mitochondrial respiration after the addition of the inhibitor of complex I rotenone.

[7] = 100 µM compound, means ± SEM (n = 6)

## CN(C)c1ccc2c(c1)Sc1cc(N(C)C)ccc1N2C(=O)CCn1c2c(c3ccccc31)CCC2 [Compound 4a]
[1]
  ORAC, TE Value: 6.8±0.4

## CN(C)c1ccc2nc3ccc(=[N+](C)C)cc-3sc2c1 [MB, Methylene blue, reference compound]
[1]
  ORAC, TE Value: not detectable
tubulin
  Structure of microtubules formed (electron microscopy): straight, long microtubules with a normal structure
  Increase in the rate of tubulin polymerization: more than 1.5 fold
tubulin; [7]
  Tubulin polymerization rate, % of control at 100 µM: 168 ± 17%
[2]
  Repolarization of rotenone-depolarized mitochondria (bypass of complex I inhibition): concentration-dependent repolarization
[3]
  Effect on mitochondrial membrane potential at 1 μM, rotenone and complex II substrate: induced mitochondrial depolarization

## Cc1ccc2c(c1)c1c(n2CCC(=O)N2c3ccc(N(C)C)cc3Sc3cc(N(C)C)ccc32)CCCCC1 [Compound 4k]
[1]
  ORAC, TE Value: 13.4 ± 1.3

## Cc1ccc2c(c1)c1c(n2CCC(=O)N2c3ccc(N(C)C)cc3Sc3cc(N(C)C)ccc32)CCCC1 [Compound 4c]
[1]
  ORAC, TE Value: 5.5 ± 0.4
AChE
  AChE inhibition constant αKi (noncompetitive component): 5.83 ± 0.31 µM
  Ki: 1.98 ± 0.17 µM
  Mechanism of AChE inhibition: mixed type inhibition

## CN(C)c1ccc2c(c1)Sc1cc(N(C)C)ccc1N2C(=O)CCn1c2c(c3ccccc31)CCCCCC2 [Compound 4m]
[1]
  ORAC, TE Value: 15.7 ± 1.5
[3]
  Effect on mitochondrial membrane potential at 1 μM, rotenone and complex II substrate: induced mitochondrial depolarization
AChE
  AChE inhibition constant αKi (noncompetitive component): 4.03 ± 0.15 µM
  Ki: 1.06 ± 0.04 µM
  Mechanism of AChE inhibition: mixed type inhibition

## CN(C)c1ccc2c(c1)Sc1cc(N(C)C)ccc1N2 [MBH2, reference compound]
[1]
  ORAC, TE Value: not detectable
tubulin
  Increase in the rate of tubulin polymerization: more than 1.5 fold
tubulin; [7]
  Tubulin polymerization rate (dA355/dt), % Control: 178 ± 11 % Control
[2]
  Repolarization of rotenone-depolarized mitochondria (bypass of complex I inhibition): concentration-dependent repolarization

## COc1ccc2c(c1)c1c(n2CCC(=O)N2c3ccc(N(C)C)cc3Sc3cc(N(C)C)ccc32)CCCC1 [Compound 4d]
[1]
  ORAC, TE Value: 4.8 ± 0.3

## CN(C)c1ccc2c(c1)Sc1cc(N(C)C)ccc1N2C(=O)CCn1c2c(c3cc(OC(F)(F)F)ccc31)CCCC2 [Compound 4h]
[1]
  ORAC, TE Value: 5.8 ± 0.5
tubulin
  Structure of microtubules formed (electron microscopy): straight, long microtubules with a normal structure
tubulin; [7]
  Tubulin polymerization rate, % of control at 100 µM: 179 ± 27%
[4]
  IC50: 116 ± 10.1 µM
[5]
  IC50: 61.3 ± 6.5 µM

## CN(C)c1ccc2c(c1)Sc1cc(N(C)C)ccc1N2C(=O)CCn1c2c(c3ccccc31)CCCCC2 [Compound 4j]
[1]
  ORAC, TE Value: 12.4 ± 0.2

## CC1CCc2c(c3cc(OC(F)(F)F)ccc3n2CCC(=O)N2c3ccc(N(C)C)cc3Sc3cc(N(C)C)ccc32)C1 (stereo not drawn) [Compound 4i]
[1]
  ORAC, TE Value: 5.1 ± 0.4
tubulin
  Structure of microtubules formed (electron microscopy): straight, long microtubules with a normal structure
tubulin; [7]
  Tubulin polymerization rate, % of control at 100 µM: 207 ± 5%
[2]
  Repolarization of rotenone-depolarized mitochondria (bypass of complex I inhibition): exhibits this type of activity only in a 10 µM concentration
[4]
  IC50: 101 ± 9.2 µM
[5]
  IC50: 10.4 ± 1.2 µM
[6]
  Phosphorylating respiration and maximal respiration (OCR): statistically significant increase
AChE
  AChE inhibition constant αKi (noncompetitive component): 3.19 ± 0.10 µM
  Ki: 1.12 ± 0.05 µM
  Mechanism of AChE inhibition: mixed type inhibition

## Cc1ccc2c(c1)c1c(n2CCC(=O)N2c3ccc(N(C)C)cc3Sc3cc(N(C)C)ccc32)CCCCCC1 [Compound 4n]
[1]
  ORAC, TE Value: 10.9 ± 0.6

## COc1ccc2c(c1)c1c(n2CCC(=O)N2c3ccc(N(C)C)cc3Sc3cc(N(C)C)ccc32)CCC(C)C1 (stereo not drawn) [Compound 4e]
[1]
  ORAC, TE Value: 13.3 ± 1.3

## CN(C)c1ccc2c(c1)Sc1cc(N(C)C)ccc1N2C(=O)CCn1c2c(c3cc(F)ccc31)CCCC2 [Compound 4f]
[1]
  ORAC, TE Value: 5.6 ± 0.4

## CN(C)c1ccc2c(c1)Sc1cc(N(C)C)ccc1N2C(=O)CCn1c2c(c3ccccc31)CCCC2 [Compound 4b]
[1]
  ORAC, TE Value: 8.6 ± 0.1
